According to ChEMBL document CHEMBL1201862, “PubChem BioAssay data set” (2004):
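Five compound concentrations were applied to cells in 96-well plates for 48 hours; endpoints were derived by simple linear interpolation of the resulting dose-response curve. GI50 is the concentration that inhibits growth by half.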 Calls of active or inactive are those of the source. Rule as the data show it: active = GI50 up to about 1.1 µM and inactive = higher.

Columns and labels:
Assay in all cases: NCI-60 cell line screen, 48 h
[1] = system: RPMI-8226
[2] = system: CCRF-CEM
[3] = system: PC-3
[4] = system: UACC-257
[5] = system: OVCAR-5
[6] = system: A498
[7] = system: K562
[8] = system: MOLT-4
[9] = system: RXF 393
[10] = system: U-251
[11] = system: SF-295
[12] = system: BT-549
[13] = system: UO-31
[14] = system: LOX IMVI
[15] = system: T47D
[16] = system: NCI-H460
[17] = system: Hs-578T
[18] = system: NCI-H23
[19] = system: SR
[20] = system: NCI-H226
[21] = system: NCI/ADR-RES
[22] = system: HOP-92
[23] = system: TK-10
[24] = system: A549
[25] = system: HCC 2998
[26] = system: MCF7
[27] = system: OVCAR-8
[28] = system: HT-29
[29] = system: SK-MEL-28
[30] = system: SN12C
[31] = system: CAKI-1
[32] = system: 786-0
[33] = system: SF-268
[34] = system: Malme-3M
[35] = system: M14
[36] = system: KM12
[37] = system: OVCAR-3
[38] = system: HOP-62
[39] = system: DU-145
[40] = system: SF-539
[41] = system: SK-OV-3
[42] = system: SNB-19
[43] = system: EKVX
[44] = system: HCT-116
[45] = system: MDA-N
[46] = system: HCT-15
[47] = system: ACHN
[48] = system: SK-MEL-5
[49] = system: COLO 205
[50] = system: IGROV-1
[51] = system: HL-60
[52] = system: SW-620
[53] = system: OVCAR-4
[54] = system: SNB-75
[55] = system: NCI-H522
[56] = system: SK-MEL-2

## CN(C)NC1=NS(=O)(=O)c2cc3c(=O)n(C)[nH]c3cc2S1
[1]
  GI50: > 10 µM (inactive)
[2]
  GI50: > 10 µM (inactive)
[3]
  GI50: > 10 µM (inactive)
[4]
  GI50: > 10 µM (inactive)
[5]
  GI50: > 10 µM (inactive)
[6]
  GI50: > 10 µM (inactive)
[7]
  GI50: > 10 µM (inactive)
[8]
  GI50: > 10 µM (inactive)
[9]
  GI50: > 10 µM (inactive)
[10]
  GI50: > 10 µM (inactive)
[11]
  GI50: > 10 µM (inactive)
[12]
  GI50: > 10 µM (inactive)
[13]
  GI50: > 10 µM (inactive)
[14]
  GI50: > 10 µM (inactive)
[15]
  GI50: > 10 µM (inactive)
[16]
  GI50: > 10 µM (inactive)
[17]
  GI50: > 10 µM (inactive)
[18]
  GI50: > 10 µM (inactive)
[19]
  GI50: > 10 µM (inactive)
[20]
  GI50: > 10 µM (inactive)
[21]
  GI50: > 10 µM (inactive)
[22]
  GI50: > 10 µM (inactive)
[23]
  GI50: > 10 µM (inactive)
[24]
  GI50: > 10 µM (inactive)
[25]
  GI50: > 10 µM (inactive)
[26]
  GI50: 5.05 µM (inactive)
[27]
  GI50: > 10 µM (inactive)
[28]
  GI50: > 10 µM (inactive)
[29]
  GI50: > 10 µM (inactive)
[30]
  GI50: > 10 µM (inactive)
[31]
  GI50: > 10 µM (inactive)
[32]
  GI50: > 10 µM (inactive)
[33]
  GI50: > 10 µM (inactive)
[34]
  GI50: > 10 µM (inactive)
[35]
  GI50: > 10 µM (inactive)
[36]
  GI50: > 10 µM (inactive)
[37]
  GI50: > 10 µM (inactive)
[38]
  GI50: > 10 µM (inactive)
[39]
  GI50: > 10 µM (inactive)
[40]
  GI50: > 10 µM (inactive)
[41]
  GI50: > 10 µM (inactive)
[42]
  GI50: > 10 µM (inactive)
[43]
  GI50: > 10 µM (inactive)
[44]
  GI50: > 10 µM (inactive)
[45]
  GI50: > 10 µM (inactive)
[46]
  GI50: > 10 µM
[47]
  GI50: > 10 µM (inactive)
[48]
  GI50: > 10 µM (inactive)
[49]
  GI50: > 10 µM (inactive)
[50]
  GI50: > 10 µM (inactive)
[51]
  GI50: > 10 µM (inactive)
[52]
  GI50: > 10 µM (inactive)
[53]
  GI50: > 10 µM (inactive)
[54]
  GI50: > 10 µM (inactive)
[55]
  GI50: > 10 µM (inactive)
[56]
  GI50: > 10 µM (inactive)
